Test results taken from ChEMBL document CHEMBL1132706 (J Med Chem, 1999).

Experiments:
CEM-SS [1] = assay: Compound was evaluated for the cytoprotection of CEM-SS cells by XTT cytoprotection assay through the NCI AIDS Screen; format: functional, cell-based; conditions: Homo sapiens
[2] = biological target: T1, Human immunodeficiency virus type 1 integrase (Human immunodeficiency virus 1, UniProt Q7ZJM1)
Description: Compound was evaluated for the inhibitory concentration against HIV-1 integrase by radiolabeled oligonucleotide-based assay 3''-processing

[3] = biological target: T1, Human immunodeficiency virus type 1 integrase; remark: listed apart in the source
Description: Inhibition of HIV-1 integrase by radiolabeled oligonucleotide-based assay integration

CEM-SS [4] = assay: Compound was evaluated for the cytoprotection of CEM-SS cells by XTT cytoprotection assay through the NCI AIDS Screen; Not reached due to cytotoxicity; format: functional, cell-based, Homo sapiens
CEM-SS [5] = assay: Compound was evaluated for the cytoprotection by XTT cytoprotection assay through the NCI AIDS Screen; format: functional, cell-based; conditions: Homo sapiens

T1 sequence (Q7ZJM1 whole entry): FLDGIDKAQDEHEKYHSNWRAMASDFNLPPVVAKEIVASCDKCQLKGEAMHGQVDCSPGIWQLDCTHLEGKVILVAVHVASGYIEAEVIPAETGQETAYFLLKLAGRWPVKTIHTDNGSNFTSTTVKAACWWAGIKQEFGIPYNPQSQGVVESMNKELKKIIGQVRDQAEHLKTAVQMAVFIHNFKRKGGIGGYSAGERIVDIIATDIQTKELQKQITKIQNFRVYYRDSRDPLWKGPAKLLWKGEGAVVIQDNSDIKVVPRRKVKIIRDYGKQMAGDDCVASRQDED

Row | Structure (SMILES) | IC50 (CEM-SS [1]) [µM] | IC50 [2] [µM] | IC50 [3] [µM] | EC50 (CEM-SS [4]) | IC50 (CEM-SS [5]) [µM]
1 | CC(=O)Oc1ccc(/C=C/C(=O)O[C@H]2CCCC[C@@H]2OC(=O)/C=C/c2ccc(OC(C)=O)c(OC(C)=O)c2)cc1OC(C)=O | 5.76 | > 333 | > 333 | – | –
2 | O=C(/C=C/c1ccc(O)c(O)c1)NC(COC(=O)/C=C/c1ccc(O)c(O)c1)C(=O)O (configuration not stated) | – | 3.3 | 1.7 | – | –
3 | C[C@H](OC(=O)/C=C/c1ccc(O)c(O)c1)[C@H](C)OC(=O)/C=C/c1ccc(O)c(O)c1 | 3.64 | > 38.4 | 7.8 | Not reached | –
4 | COC(=O)[C@@H](CNC(=O)/C=C/c1ccc(OC)c(OC)c1)NC(=O)/C=C/c1ccc(OC)c(OC)c1 | – | > 1000 | > 1000 | – | –
5 | O=C(/C=C/c1ccc(O)c(O)c1)OCC(OC(=O)/C=C/c1ccc(O)c(O)c1)C(=O)O (configuration not stated) | – | 4.2 | 1.7 | – | –
6 | COC(=O)C(COC(=O)/C=C/c1ccc(OC(C)=O)c(OC(C)=O)c1)NC(=O)/C=C/c1ccc(OC(C)=O)c(OC(C)=O)c1 (configuration not stated) | – | 2.5 | 3.2 | – | –
7 | COC(=O)[C@H](COC(=O)/C=C/c1ccc(OC(C)=O)c(OC(C)=O)c1)NC(=O)/C=C/c1ccc(OC(C)=O)c(OC(C)=O)c1 | – | 2.8 | 3.8 | – | –
8 | CC(=O)Oc1ccc(/C=C/C(=O)OCCCOC(=O)/C=C/c2ccc(OC(C)=O)c(OC(C)=O)c2)cc1OC(C)=O | – | > 333 | > 333 | – | –
9 | CC(=O)Oc1ccc(/C=C/C(=O)NCC(NC(=O)/C=C/c2ccc(OC(C)=O)c(OC(C)=O)c2)C(=O)O)cc1OC(C)=O (configuration not stated) | – | 4.1 | 4.1 | – | –
10 | COc1ccc(/C=C/C(=O)NC[C@@H](NC(=O)/C=C/c2ccc(OC)c(OC)c2)C(=O)O)cc1OC | – | > 1000 | > 1000 | – | –
11 | CC(=O)Oc1ccc(/C=C/C(=O)OCCOC(=O)/C=C/c2ccc(OC(C)=O)c(OC(C)=O)c2)cc1OC(C)=O | 6.7 | > 100 | > 100 | – | –
12 | O=C(/C=C/c1ccc(O)c(O)c1)NCCOC(=O)/C=C/c1ccc(O)c(O)c1 | 9.22 | > 27.5 | 6.5 | – | –
13 | O=C(/C=C/c1ccc(O)c(O)c1)O[C@H]1CCCC[C@@H]1OC(=O)/C=C/c1ccc(O)c(O)c1 | 5.67 | > 24.8 | 7.6 | Not reached | –
14 | COC(=O)C(COC(=O)/C=C/c1ccc(OC(C)=O)c(OC(C)=O)c1)OC(=O)/C=C/c1ccc(OC(C)=O)c(OC(C)=O)c1 (configuration not stated) | – | 10.1 | 10.1 | – | –
15 | O=C(/C=C/c1ccc(O)c(O)c1)OCCOC(=O)/C=C/c1ccc(O)c(O)c1 | – | 0.4 | 0.4 | Not reached | 10
16 | COC(=O)[C@@H](COC(=O)/C=C/c1ccc(OC(C)=O)c(OC(C)=O)c1)NC(=O)/C=C/c1ccc(OC(C)=O)c(OC(C)=O)c1 | – | 2.8 | 3.2 | – | –
17 | CC(=O)Oc1ccc(/C=C/C(=O)O[C@@H](C)[C@H](C)OC(=O)/C=C/c2ccc(OC(C)=O)c(OC(C)=O)c2)cc1OC(C)=O | 5.71 | > 333 | > 333 | – | –
18 | CC(=O)NC(COC(=O)/C=C/c1ccc(O)c(O)c1)C(=O)O (configuration not stated) | – | 333 | 111 | – | –
19 | CC(=O)Oc1ccc(/C=C/C(=O)OCC(OC(=O)/C=C/c2ccc(OC(C)=O)c(OC(C)=O)c2)C(=O)O)cc1OC(C)=O (configuration not stated) | – | 2.1 | 2.8 | – | –
20 | COC(=O)[C@@H](CNC(=O)/C=C/c1ccc(OC(C)=O)c(OC(C)=O)c1)NC(=O)/C=C/c1ccc(OC(C)=O)c(OC(C)=O)c1 | – | 10.9 | 10 | – | –
21 | COC(=O)C(COC(=O)/C=C/c1ccc(OC(C)=O)c(OC(C)=O)c1)NC(C)=O (configuration not stated) | – | > 333 | > 333 | – | –
